Source: patent US20100190768A1, “NOVEL FUSED PYROLE DERIVATIVE” (Dainippon Sumitomo Pharma Co., Ltd., priority 2005, published 2010)

What was measured:
human GRα protein = target: T1, human GRα protein (Homo sapiens, UniProt P04150); assay: Binding inhibitory assay (displacement of 3H-dexamethasone from the cytoplasm fraction of baculovirus-infected insect cells); details: 100 nM test compound; 3H-Dex; NSB with 10 μM dexamethasone; read-out: Binding Inhibitory ratio (%) of 100 nM of test compound
T1 construct: made in house; host or cells: insect cells infected with baculovirus; cytoplasm fraction used
T1 sequence (P04150 1-777): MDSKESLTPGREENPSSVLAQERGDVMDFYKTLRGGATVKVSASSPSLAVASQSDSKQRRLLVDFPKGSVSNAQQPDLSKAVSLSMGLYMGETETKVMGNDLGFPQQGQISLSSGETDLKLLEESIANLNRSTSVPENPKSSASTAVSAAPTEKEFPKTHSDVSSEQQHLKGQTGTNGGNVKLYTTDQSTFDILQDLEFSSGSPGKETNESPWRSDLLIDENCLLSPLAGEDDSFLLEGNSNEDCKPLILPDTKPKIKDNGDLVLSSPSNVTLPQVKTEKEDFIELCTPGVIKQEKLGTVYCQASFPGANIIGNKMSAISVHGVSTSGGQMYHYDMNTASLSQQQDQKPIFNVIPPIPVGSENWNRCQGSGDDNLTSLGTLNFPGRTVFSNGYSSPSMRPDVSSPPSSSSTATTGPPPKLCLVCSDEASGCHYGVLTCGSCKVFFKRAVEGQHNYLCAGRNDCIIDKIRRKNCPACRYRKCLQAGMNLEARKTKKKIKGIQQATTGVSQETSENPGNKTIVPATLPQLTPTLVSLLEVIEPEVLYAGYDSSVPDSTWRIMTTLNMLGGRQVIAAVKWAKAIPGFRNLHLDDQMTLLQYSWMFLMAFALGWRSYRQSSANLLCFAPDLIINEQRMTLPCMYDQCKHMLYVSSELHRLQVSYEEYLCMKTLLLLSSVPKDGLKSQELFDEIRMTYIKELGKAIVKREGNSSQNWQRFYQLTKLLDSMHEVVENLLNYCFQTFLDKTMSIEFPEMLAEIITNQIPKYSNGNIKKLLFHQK
Method: Insect cells, which had been infected with baculovirus for expressing human GRα protein, were suspended in an approximately equal volume of a binding buffer (10 mM Tris-Cl, 1.5 mM EDTA, 10% glycerol, 5 mM DTT, 20 mM sodium molybdate, pH 7.6). The mixture was rapidly frozen with liquid nitrogen, and then melted at room temperature. This cycle was repeated totally twice in order to break the cell membrane. The mixture was ultracentrifuged under 100,000 g at 4° C. for one hour to give the supernatant, which was the cytoplasm fraction containing human GRα protein.
A polypropylene 96-well plate (manufactured by Costar Corporation, etc.) was placed on ice, and DMSO or a test compound (each 1 μl) was put into each well. A 10 nM ^3H-Dex solution (50 μl; tritiated dexamethasone; manufactured by Amersham) in the binding buffer, and a GR protein solution, i.e., a solution by diluting the above cytoplasm fraction with the binding buffer (50 μl) were added to each well, and the plate was lightly shaken with a plate mixer, and then left to stand at 4° C. for 16 to 20 hours (the final concentration of DMSO: 1%).
A 5% solution of dextran-coated active carbon (manufactured by Sigma) suspended in the binding buffer (50 μl) was put into each well, and the plate was lightly shaken with a plate mixer for 30 seconds. Then, the plate was centrifuged at 2500 rpm at 4° C. for 5 minutes, and the ^3H count in the supernatant (50 μl) was measured by a TopCount (manufactured by Perkin-Elmer Corporation). Each test compound was tested twice.
The binding activity was calculated as follows. The mean ^3H count in the presence of dexamethason (Dex) 10 μM was considered as NSB (non-specific binding), and the binding inhibitory ratio in each well was calculated by the following equation.
Binding Inhibitory Ratio (%)=100×{1−(cpm value of each well−NSB)/(mean cpm value of DMSO-well−NSB)}
(cpm means count per minute)
The mean binding inhibitory ratio of each well was calculated by the above equation to give a binding inhibitory ratio of each test compound.

H4-III-E cells = assay: TAT (tyrosine aminotransferase) assay; assay type: cell-based; details: for activation at 10 µM / Agonistic activity of 10 μM test compound: 10 μM test compound alone, relative to maximum Dex-induced TAT activity (100%); for activation at 10 µM: read-out: Agonistic activity of 10 μM test compound; for Antagonistic activity of 10 μM test compound: 10 μM test compound together with 0.005 μM dexamethasone, inhibitory ratio against TAT activity increase by Dex
Method: H4-III-E cells, which had been continuously cultured in α-MEM medium A (supplemented with 10% inactivated FBS, 50 μM 2-mercapto-ethanol), were suspended in α-MEM medium A or α-MEM medium B (supplemented with 10% inactivated FBS, 50 μM 2-mercapto-ethanol, but without phenol red), and the cell suspension was seeded to a 96-well plate in an amount of 2×10^4 cells/100 μl/well, and the cells were cultured overnight. The supernatant in the medium was removed, and a test compound (100 μl, diluted with α-MEM medium A or α-MEM medium B) was added, and the cells were further cultured overnight. In order to measure the agonistic activity, a test compound was added alone, while in order to measure the antagonistic activity, a test compound was added simultaneously together with 0.005 μM dexamethasone and evaluated the extent of the inhibitory effect of said test compound against the TAT activity-inducing activity by dexamethasone.
The culture supernatant in the plate was removed by suction, and a cell lysate (20 μL; 1% NP-40, 0.2% Triton X-100, 0.25% DOC, 0.1% SDS, 1 mM EGTA, 150 mM NaCl, Tris (pH7.4), Protease inhibitor cocktail [2.5 mg/ml aprotinin, 2.5 mg/ml leupeptin, 2.5 mg/ml soybean trypsin inhibitor]) was added, and further thereto was added a TAT reaction reagent (150 μL; 10 N KOH, 0.125 M KH2PO4, 0.5 M α-ketoglutarate, 5 mM Pyridoxal-5′ phosphate, L-tyrosine), and the mixture was reacted at 37° C. for 15 minutes. Further, a 10N KOH (20 μL) was added thereto, and the mixture was reacted at 37° C. for 30 minutes, and the absorbance at 331 nm was measured by a microplate reader (SPECTRA MAX 250).
From the mean absorbance in the wells to which a test compound was added, the mean absorbance in the wells to which a compound and a TAT reaction solution were not added was subtracted.
Agonistic activity (%)=100×[(absorbance of the drug-treated group)−(absorbance of the group without TAT reaction reagent)]/[(absorbance of Dex-treated group)−(absorbance of the group without TAT reaction reagent)]
On the other hand, the antagonistic activity was calculated as follows.
Antagonistic activity (%)=Inhibitory ratio (%) against TAT activity increase by Dex=100−100×[(absorbance of the drug-treated group)−(absorbance of the group without a drug)]/[(absorbance of Dex-treated group)−(absorbance of the group without a drug)]
With regard to the agonistic activity and the antagonistic activity, the results of 10% or more were expressed as O, while the results of less than 10% were expressed as X.

| Compound | inhibition at 0.1 µM (human GRα protein) | activation at 10 µM (H4-III-E cells) | Antagonistic activity of 10 μM test compound (H4-III-E cells) | Agonistic activity of 10 μM test compound (H4-III-E cells) |
| --- | --- | --- | --- | --- |
| COCCNCC(O)(c1cn(Cc2ccccc2)c2cc([N+](=O)[O-])ccc12)C(F)(F)F (stereo not drawn) [Example 131, 2-(1-Benzyl-6-nitro-1H-indol-3-yl)-1,1,1-trifluoro-3-[(2-methoxyethyl)amino]-propan-2-ol] | 84% | < 10% | – | – |
| O=[N+]([O-])c1ccc2c(C(O)(CNCCOc3ccccc3)C(F)(F)F)cn(Cc3ccccc3)c2c1 (stereo not drawn) [Example 133, 2-(1-Benzyl-6-nitro-1H-indol-3-yl)-1,1,1-trifluoro-3-[(2-phenoxyethyl)amino]-propan-2-ol] | 51% | < 10% | ◯ | – |
| O=[N+]([O-])c1ccc2c(C(O)(CNCc3ccccc3)C(F)(F)F)cn(Cc3ccccc3)c2c1 (stereo not drawn) [Example 137, 3-(Benzylamino)-2-(1-benzyl-6-nitro-1H-indol-3-yl)-1,1,1-trifluoropropan-2-ol] | 92% | – | ◯ | ◯ |
| O=[N+]([O-])c1ccc2c(C(O)(CNCC3CCCO3)C(F)(F)F)cn(Cc3ccccc3)c2c1 (stereo not drawn) [Example 140, 2-(1-Benzyl-6-nitro-1H-indol-3-yl)-1,1,1-trifluoro-3-[(tetrahydrofuran-2-yl-methyl)amino]propan-2-ol] | 80% | < 10% | ◯ | – |
| O=C(N1CCOCC1)C(O)(c1cn(Cc2ccccc2)c2ccccc12)C(F)(F)F (stereo not drawn) [Example 152, 2-(1-Benzyl-1H-indol-3-yl)-1,1,1-trifluoro-3-morpholin-4-yl-3-oxopropan-2-ol] | 50% | < 10% | – | – |
| COC(CN1CCC(C(=O)c2ccccc2)CC1)(c1cn(Cc2ccccc2)c2cc([N+](=O)[O-])ccc12)C(F)(F)F (stereo not drawn) [Example 153, {1-[2-(1-Benzyl-6-nitro-1H-indol-3-yl)-3,3,3-trifluoro-2-methoxypropyl]piperidin-4-yl}(phenyl)methanone] | 91% | – | ◯ | ◯ |
| O=[N+]([O-])c1ccc2c(C(O)(Cn3ccnc3)C(F)(F)F)cn(Cc3ccccc3)c2c1 (stereo not drawn) [Example 158, 2-(1-Benzyl-6-nitro-1H-indol-3-yl)-1,1,1-trifluoro-3-(1H-imidazol-1-yl)propan-2-ol] | 96% | < 10% | ◯ | – |

Continued, in another order:

| inhibition at 0.1 µM (human GRα protein) | Compound | activation at 10 µM (H4-III-E cells) | Antagonistic activity of 10 μM test compound (H4-III-E cells) | Agonistic activity of 10 μM test compound (H4-III-E cells) |
| --- | --- | --- | --- | --- |
| 98% | O=[N+]([O-])c1ccc2c(C(O)(CN3CCN(S(=O)(=O)c4ccccc4)CC3)C(F)(F)F)cn(Cc3ccccc3)c2c1 (stereo not drawn) [Example 112, 2-(1-Benzyl-6-nitro-1H-indol-3-yl)-1,1,1-trifluoro-3-[4-(phenylsulfonyl)piperazin-1-yl]propan-2-ol] | < 10% | ◯ | – |
| 78% | O=[N+]([O-])c1ccc2c(C(O)(CN3CCC(Oc4ccccc4Cl)CC3)C(F)(F)F)cn(Cc3ccccc3)c2c1 (stereo not drawn) [Example 119, 2-(1-Benzyl-6-nitro-1H-indol-3-yl)-3-[4-(2-chlorophenoxy)piperidin-1-yl]-1,1,1-trifluoropropan-2-ol] | – | ◯ | ◯ |
| 97% | O=[N+]([O-])c1ccc2c(C(O)(CN3CCS(=O)(=O)CC3)C(F)(F)F)cn(Cc3ccccc3)c2c1 (stereo not drawn) [Example 120, 2-(1-Benzyl-6-nitro-1H-indol-3-yl)-3-(1,1-dioxidothiomorpholin-4-yl)-1,1,1-trifluoropropan-2-ol] | – | ◯ | ◯ |
| 72% | O=[N+]([O-])c1ccc2c(C(O)(CN3CCC4(CC3)CS(=O)(=O)c3ccccc3O4)C(F)(F)F)cn(Cc3ccccc3)c2c1 (stereo not drawn) [Example 123, 2-(1-Benzyl-6-nitro-1H-indol-3-yl)-3-(4,4-dioxido-1′H-spiro[1,4-benzoxathiine-2,4′-piperidin]-1′-yl)-1,1,1-trifluoropropan-2-ol] | < 10% | ◯ | – |
| 64% | O=[N+]([O-])c1ccc2c(C(O)(CN3CCC4(CC3)CNc3ccccc3O4)C(F)(F)F)cn(Cc3ccccc3)c2c1 (stereo not drawn) [Example 128, 2-(1-Benzyl-6-nitro-1H-indol-3-yl)-3-(3,4-dihydro-1′H-spiro[1,4-benzoxazine-2,4′-piperidin]-1′-yl)-1,1,1-trifluoropropan-2-ol] | < 10% | – | – |
| 97% | COc1cccc(N2CCN(CC(O)(c3cn(Cc4ccccc4)c4cc([N+](=O)[O-])ccc34)C(F)(F)F)CC2)c1 (stereo not drawn) [Example 144, 2-(1-Benzyl-6-nitro-1H-indol-3-yl)-1,1,1-trifluoro-3-[4-(3-methoxyphenyl)-piperazin-1-yl]propan-2-ol] | – | ◯ | ◯ |
| 98% | O=[N+]([O-])c1ccc2c(C(O)(Cn3cccn3)C(F)(F)F)cn(Cc3ccccc3)c2c1 (stereo not drawn) [Example 150, 2-(1-Benzyl-6-nitro-1H-indol-3-yl)-1,1,1-trifluoro-3-(1H-pyrazol-1-yl)propan-2-ol] | – | ◯ | ◯ |
| 95% | O=[N+]([O-])c1ccc2c(C(O)(CN3CCCC(O)C3)C(F)(F)F)cn(Cc3ccccc3)c2c1 (stereo not drawn) [Example 165, 1-[2-(1-Benzyl-6-nitro-1H-indol-3-yl)-3,3,3-trifluoro-2-hydroxypropyl]piperidin-3-ol] | – | ◯ | ◯ |
